Each structure is given as a SMILES string.

These results are taken from patent US20160015064A1, “COMPOUNDS, COMPOSITIONS, AND METHODS FOR MODULATING SWEET TASTE” (CHROMOCELL CORPORATION, priority 2013, published 2016).

The subject of experiment [1] is perception of the sweet taste of an aqueous solution of sweetener. The experiment is described as follows: Ranking sip and spit test of sweetness perception (R index). The format is in vivo, humans. The settings on record: vs negative control. The method, then: The effect of the test compounds on the perception of the sweet taste of an aqueous solution of sweetener in humans was evaluated using a ranking “sip and spit” method.
The aqueous sweetener solutions were prepared by adding, fructose, sucrose or glucose (by weight), to water to achieve the desired concentration.
Compounds were first prepared as a 500-fold concentrated stock solution in 100% ethanol. These concentrated stocks were then added to the aqueous sweetener solutions to result in a final ethanol concentration of 0.2%. The control (positive and negative) samples were also normalized to 0.2% ethanol.
In the ranking test used for compound evaluation, taste panelists (n=15), rank samples in increasing order of sweetness. One set, comprising of 6 samples, was presented to each panelists at a given time and are asked to rank them in order of increasing sweetness.
Panelists were instructed not to eat or drink (except water) for at least 1 h before the test. During the test, panelists were instructed to sip each sample, swirl it around their mouth and then expectorate. After tasting each set, panelists were instructed to rank the 6 samples within the set from least sweet to most sweet. Where rank 1—is lowest in sweetness and rank 6—is highest in sweetness. Panelists cleansed their palates by rinsing with water, eating a cracker and waiting for an interval of 10 minutes. All samples were tasted at ambient temperatures. Each sample was tasted twice.
R index analysis was utilized to determine the degree of difference between a test and control sample. It indicates the level of discrimination between two samples. […] A positive control sample was used to assess the ability of the panelists to accurately discriminate sweetness perception differences from the negative control.

Experiment [2] deals with perception of the sweet taste in an aqueous environment. The experiment can be described thus: Trained descriptive analysis (DA) panel, sweet attribute. It counts as in vivo, humans. The note with it: for DA Panel Average Sweetness Intensity Score (on 15 cm scale) / Fold enhancement of sweetness perception as compared to control sweetener solution / Perceived inherent sweetness compared to solubilizing agent alone / Perceived sweetness compared to solubilizing agent alone (inherent sweetness): 35 ppm compound plus solubilizing agent; for Perceived inherent sweetness compared to solubilizing agent alone: citric acid-citrate solution pH 3; for Compound effects beyond the additive effect of inherent sweetness: 4% fructose and 8% sucrose; for Compound effects beyond the additive effect of inherent sweetness / Perceived sweetness vs control sweetener solutions (FIG. 2) / Perceived sweetness vs control sweetener solutions (FIG. 1): 35 ppm; for Perceived sweetness vs control sweetener solutions (FIG. 2) / Perceived sweetness vs control sweetener solutions (FIG. 1): fructose and sucrose, ** p<0.01; for Perceived sweetness compared to solubilizing agent alone (inherent sweetness): water pH 7. The method, then:
The effect of the test compounds on the perception of the sweet taste in an aqueous environment, in the absence or presence of carbohydrate sweeteners, was evaluated using a descriptive analysis methodology with a group of trained panelists, as follows.
Candidate panelists were recruited, with prescreening and personal interviews, and were assessed for their ability to detect, recognize and differentiate basic taste attributes or mixtures thereof as part of a standardized acuity test. These candidate panelists were also assessed for their innate ability to identify flavors, and to rank on intensity scales. Other senses such as smell and vision were also included as part of the assessment. Candidates also were screened for their ability to use the language to describe and articulate ideas.
Selected candidates proceeded to training as a group in three phases: (1) Lexicon development, (2) Concept alignment, and (3) Scaling descriptors. During lexicon development, panelists evaluated products appropriate for use in the study to generate and align on terms describing the flavor, taste, aromatic, trigeminal, and temporal attributes. During concept alignment, the panel evaluated the products mentioned above to clarify and confirm the attributes that were generated during lexicon development using reference standards that appropriately define each attribute; these are either physical references (e.g. sucrose solutions) or verbal descriptions (e.g. overall flavor). Product terms and concepts were validated during this portion of the study.
In the last phase, scaling descriptors, the panel participated in a series of exercises focused on ordering and ranking samples according to relative attribute intensity, measuring attribute intensity using a defined length of line scale. Whenever possible, different levels or concentration of references were used as anchors to facilitate use of the scale. Panelists were provided with blinded references at this stage to evaluate their understanding and perception of the scale.
The panel used in this example was trained to reference sweet attributes in an absolute manner, such that a particular concentration of sweetener is always measured by the panelists at the same point using a 15 cm line scale where each cm represents a 1% increase in sucrose to cover the range of 0% to 15% sucrose. For the rest of the attributes, the panel was trained using a hybrid approach between descriptive analysis methods (e.g. quantitative descriptive analysis, the sensory spectrum, etc.) well-known to those skilled in the art.
The trained panel was then used for a descriptive analysis assessment for Compounds 1, 2 and 3 in aqueous solutions at pH 3 and pH 7. Each of the three compounds was tested at 35 ppm in sucrose and fructose sweeteners. In addition, Compounds 1, 2 and 3 were also examined in water at pH 3 and pH 7 to assess for any inherent sweetness.
The aqueous sweetener solutions were prepared by adding, fructose or sucrose (by weight), to water to achieve the desired concentration. Aqueous sucrose solutions at pH 3 were buffered using a final concentration of 0.096% Citric Acid plus 0.036% Sodium Citrate while aqueous fructose solutions at pH 3 were buffered using a final concentration of 0.06% Citric Acid and 0.0225% Sodium Citrate.
Compounds were first prepared as a […] concentrated stock solution in 100% ethanol. These concentrated stocks were then added to the aqueous sweetener solutions to result in a final ethanol concentration of 0.2%. In addition to compounds, a solubilizing agent at a final concentration of 0.02% was added to the aqueous sweetener solutions. Control samples were also balanced with 0.2% ethanol and in certain cases 0.02% solubilizing agent.
Both control (aqueous sweetener solutions without compound) and variant (aqueous sweetener solutions with compound) samples were blinded and randomized (by sweetener and pH blocks). […]

The mark [3] stands for this setting: citric acid-citrate solution pH 3, no sweetener.
[4] abbreviates: water pH 7, no sweetener, 1 cm = 1% sucrose.

As to `COc1ccc(C2CC(=O)c3c(O)cccc3O2)cc1O` (single isomer, unassigned) [Compound 2, 5-hydroxy-2-(3-hydroxy-4-methoxyphenyl)chroman-4-one], the “R Index Score” value is listed as 81 in experiment [1] (4% fructose test sample, compound 10 ppm) and 90 in experiment [1] (5% sucrose test sample, compound 10 ppm, significant at R index ≧60). In addition, the “DA Panel Average Sweetness Intensity Score (on 15 cm scale)” value in experiment [2] (4% fructose, pH 3) is given as 6.93; in experiment [2] (4% fructose, pH 7), 7.08; in experiment [2] (8% sucrose, pH 3) it was 9.21; in experiment [2] (8% sucrose, pH 7) it was 10.15; in experiment [2] (setting [3]), 1.27; in experiment [2] (setting [4]) it was 1.76. Further, the “Fold enhancement of sweetness perception as compared to control sweetener solution” value came out at 1.38X in experiment [2] (4% fructose, pH 3); 1.62X in experiment [2] (4% fructose, pH 7); 1.28X in experiment [2] (8% sucrose, pH 3); 1.35X in experiment [2] (8% sucrose, pH 7). Further, the “Perceived inherent sweetness compared to solubilizing agent alone” value in experiment [2] is given as “do not show further significant increase in perceived inherent sweetness”. Moreover, the “Compound effects beyond the additive effect of inherent sweetness” value in experiment [2] (pH 3) and in experiment [2] (pH 7) was “super-additive effects” throughout. For the same molecule, the “Perceived sweetness vs control sweetener solutions (FIG. 2)” value in experiment [2] (pH 3) was “significant increase in perceived sweetness”. Moreover, the “Perceived sweetness vs control sweetener solutions (FIG. 1)” value in experiment [2] (pH 7) was “significant increase in perceived sweetness”. Further, the “Perceived sweetness compared to solubilizing agent alone (inherent sweetness)” value in experiment [2] was “further increase in perceived sweetness”.
Turning to `COc1ccc(C2CC(=O)c3c(O)cccc3O2)cc1O` (single isomer, unassigned) [Compound 3, 5-hydroxy-2-(3-hydroxy-4-methoxyphenyl)chroman-4-one], in experiment [1] (5% sucrose test sample, compound 2.5 ppm), the “R Index Score” value was 78. For the same molecule, the “DA Panel Average Sweetness Intensity Score (on 15 cm scale)” value worked out at 7.09 in experiment [2] (4% fructose, pH 3); 7.08 in experiment [2] (4% fructose, pH 7); 9.23 in experiment [2] (8% sucrose, pH 3); 10.22 in experiment [2] (8% sucrose, pH 7); 1.58 in experiment [2] (setting [3]); 1.58 in experiment [2] (setting [4]). Moreover, the “Fold enhancement of sweetness perception as compared to control sweetener solution” value in experiment [2] (4% fructose, pH 3) is 1.41X; in experiment [2] (4% fructose, pH 7) it was 1.62X; in experiment [2] (8% sucrose, pH 3), 1.28X; in experiment [2] (8% sucrose, pH 7) it was 1.36X. In experiment [2], the “Perceived inherent sweetness compared to solubilizing agent alone” value is reported as “do not show further significant increase in perceived inherent sweetness”. Moreover, the “Compound effects beyond the additive effect of inherent sweetness” value in experiment [2] (pH 3) and in experiment [2] (pH 7) was “super-additive effects” throughout. For the same molecule, in experiment [2] (pH 3), the “Perceived sweetness vs control sweetener solutions (FIG. 2)” value is reported as “significant increase in perceived sweetness”. The “Perceived sweetness vs control sweetener solutions (FIG. 1)” value in experiment [2] (pH 7) was “significant increase in perceived sweetness”. In addition, the “Perceived sweetness compared to solubilizing agent alone (inherent sweetness)” value in experiment [2] was “further increase in perceived sweetness”.
